Measurements taken from ChEMBL document CHEMBL1151498, “Synthesis and biological evaluation of 23-oxa-, 23-thia- and 23-oxa-24-oxo-1,25-dihydroxyvitamin D3” (1993).

Key:
HL-60 [1] = assay: Ability to induce differentiation of human promyeloid leukemia cells (HL-60); type: functional
[2] = biological target: T1, Vitamin D3 receptor (Homo sapiens) (UniProt P11473); assay: Compound was tested to assess the relative affinity for the intestinal mucosal vitaminD receptor
T1 sequence (whole entry): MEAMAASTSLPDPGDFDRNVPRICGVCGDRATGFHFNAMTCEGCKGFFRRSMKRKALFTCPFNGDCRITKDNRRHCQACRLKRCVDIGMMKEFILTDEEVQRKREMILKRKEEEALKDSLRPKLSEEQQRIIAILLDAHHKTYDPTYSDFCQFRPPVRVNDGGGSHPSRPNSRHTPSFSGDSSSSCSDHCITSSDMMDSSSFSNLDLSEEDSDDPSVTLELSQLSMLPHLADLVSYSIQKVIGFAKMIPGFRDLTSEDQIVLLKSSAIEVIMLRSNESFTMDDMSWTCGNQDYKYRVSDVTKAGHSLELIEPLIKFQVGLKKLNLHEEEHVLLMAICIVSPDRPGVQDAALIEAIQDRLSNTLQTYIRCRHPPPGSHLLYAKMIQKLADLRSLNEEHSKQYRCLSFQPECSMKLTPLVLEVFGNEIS

HL-60 [3] = assay: Compound was tested to induce differentiation of human promyeloid leukemia cells (HL-60); type: functional

Relative affinity [2]	Structure (SMILES)	Relative activity (HL-60 [1])	Relative activity (HL-60 [3])
2	C=C1/C(=C\C=C2/CCC[C@]3(C)[C@@H]([C@H](C)COCC(C)(C)O)CC[C@@H]23)C[C@@H](O)C[C@@H]1O	9	
13	C=C1/C(=C\C=C2/CCC[C@]3(C)[C@@H]([C@H](C)CSCC(C)(C)O)CC[C@@H]23)C[C@@H](O)C[C@@H]1O		29
26	C=C1/C(=C\C=C2/CCC[C@]3(C)[C@@H]([C@H](C)COC(=O)C(C)(C)O)CC[C@@H]23)C[C@@H](O)C[C@@H]1O		6
